# Experimental data: paper PMC6972920, “Structure-based development of caged dopamine D2/D3 receptor antagonists” (Scientific Reports, 2020)
# “Also recorded” adds a separate entry of the source. Where two headings read alike, the source gives them in different places.
# Key:
# [1] = biological target: human dopamine receptor subtype D2S (Homo sapiens, UniProt P14416); experiment: Radioligand displacement, [3H]spiperone, CHO cell membranes; assay type: binding
# [2] = biological target: human dopamine receptor subtype D2L (Homo sapiens, UniProt P14416); experiment: as above; assay type: binding
# Sequence of human dopamine receptor subtype D2L (P14416 whole entry): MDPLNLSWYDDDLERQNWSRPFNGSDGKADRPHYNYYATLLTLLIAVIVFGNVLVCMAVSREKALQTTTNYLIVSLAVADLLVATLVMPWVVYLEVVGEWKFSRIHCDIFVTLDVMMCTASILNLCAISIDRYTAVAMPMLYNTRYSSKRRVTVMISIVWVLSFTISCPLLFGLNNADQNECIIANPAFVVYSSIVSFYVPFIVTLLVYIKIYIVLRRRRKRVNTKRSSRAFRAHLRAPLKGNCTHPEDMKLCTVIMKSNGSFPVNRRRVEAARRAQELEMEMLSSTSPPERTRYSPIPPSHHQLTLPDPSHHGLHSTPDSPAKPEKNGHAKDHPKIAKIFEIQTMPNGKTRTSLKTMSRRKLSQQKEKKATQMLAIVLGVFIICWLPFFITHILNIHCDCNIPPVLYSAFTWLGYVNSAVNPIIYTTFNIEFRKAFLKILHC
# [3] = biological target: T1, human dopamine receptor subtype D4.4 (Homo sapiens, UniProt P21917); experiment: as above; assay type: binding
# T1 sequence (P21917 1-419): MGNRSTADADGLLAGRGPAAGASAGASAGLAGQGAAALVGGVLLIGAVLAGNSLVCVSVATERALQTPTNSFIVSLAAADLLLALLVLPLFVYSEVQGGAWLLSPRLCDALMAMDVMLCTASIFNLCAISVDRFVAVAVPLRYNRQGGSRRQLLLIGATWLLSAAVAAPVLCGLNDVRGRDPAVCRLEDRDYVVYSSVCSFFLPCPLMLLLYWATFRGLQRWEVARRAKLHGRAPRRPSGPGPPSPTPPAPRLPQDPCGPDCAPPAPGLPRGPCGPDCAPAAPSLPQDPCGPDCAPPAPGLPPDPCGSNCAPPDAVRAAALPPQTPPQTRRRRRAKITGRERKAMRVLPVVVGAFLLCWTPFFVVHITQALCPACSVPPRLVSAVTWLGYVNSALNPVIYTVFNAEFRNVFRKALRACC
# [4] = biological target: T2, dopamine D2S receptor co-expressed with hybrid Gαqi in HEK293T cells (Homo sapiens, UniProt P14416); experiment: IP accumulation assay (IP-One HTRF), inhibition of 10 nM quinpirole; assay type: cell-based
# T2 construct: expressed in transfected cells; host or cells: HEK-293T cells, transient co-transfection
# T2 sequence (P14416 1-414 isoform P14416-2): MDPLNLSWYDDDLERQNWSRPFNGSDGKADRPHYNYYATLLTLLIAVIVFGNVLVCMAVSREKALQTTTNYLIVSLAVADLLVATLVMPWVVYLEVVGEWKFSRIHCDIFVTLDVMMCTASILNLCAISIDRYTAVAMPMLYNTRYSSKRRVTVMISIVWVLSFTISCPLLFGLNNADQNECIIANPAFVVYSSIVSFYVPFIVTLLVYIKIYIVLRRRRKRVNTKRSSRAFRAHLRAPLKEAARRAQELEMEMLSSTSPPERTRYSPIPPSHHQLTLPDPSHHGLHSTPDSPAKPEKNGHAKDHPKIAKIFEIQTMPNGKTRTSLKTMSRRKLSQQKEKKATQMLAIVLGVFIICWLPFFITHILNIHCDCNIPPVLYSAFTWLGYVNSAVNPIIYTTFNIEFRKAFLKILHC
# [5] = biological target: human dopamine receptor subtype D3 (Homo sapiens, UniProt P35462); experiment: Radioligand displacement, [3H]spiperone, CHO cell membranes; assay type: binding; details: mean ± SEM of 4-9 experiments, compounds 1, 2, 3: ± SD of two experiments
# Sequence of human dopamine receptor subtype D3 (P35462 whole entry): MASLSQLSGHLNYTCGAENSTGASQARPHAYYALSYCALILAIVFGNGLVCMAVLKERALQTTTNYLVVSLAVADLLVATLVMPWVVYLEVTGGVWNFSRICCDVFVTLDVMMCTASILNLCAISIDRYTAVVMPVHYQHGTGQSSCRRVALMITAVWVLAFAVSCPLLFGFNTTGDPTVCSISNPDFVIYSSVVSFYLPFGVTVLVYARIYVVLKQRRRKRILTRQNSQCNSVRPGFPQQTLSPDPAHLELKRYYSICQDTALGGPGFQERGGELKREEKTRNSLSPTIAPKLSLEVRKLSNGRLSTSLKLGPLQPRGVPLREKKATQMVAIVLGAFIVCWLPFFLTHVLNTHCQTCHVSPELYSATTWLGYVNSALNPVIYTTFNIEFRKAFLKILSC
# [6] = biological target: T3, D2S receptor (HEK293T cells co-transfected with D2S and Gαqi) (Homo sapiens, UniProt P14416); experiment: Illumination experiment: test compound solution irradiated at 365 nm before addition to cells, quinpirole stimulated IP accumulation; assay type: cell-based; details: controls; 10 nM quinpirole
# T3 construct: expressed in transfected cells; host or cells: HEK-293T cells, transient co-transfection
# T3 sequence (P14416 1-414 isoform P14416-2): as the sequence (P14416 1-414 isoform P14416-2) above
# Description: […]. Mean curves ± SEM of 4–9 individual curves each done in triplicates. […]. Mean curves from 3–4 experiments each done in duplicate. […]. While 4 (MG307) (green bars) is completely released after 10 sec, the uncaging of 5 (red bars) needs 20 sec. […]. Mean bars ± SEM derived from 3–11 individual experiments each done in quintuplicates. Irradiation with a solution of test compound before addition to the cellular test system. […]. Means ± SEM from 6 experiments in quintuplicates.
# […]. Actually, we observed an onset of a strong inverse agonist effect on quinpirole-induced IP accumulation after irradiation of the nitrobenzyl-caged compound 4 (MG307). […] […]. […] To complement uncaging of the test compounds by irradiation of the test compounds before addition to receptor by a biologically more significant experiment, we investigated whether uncaging can also be accomplished directly in the cellular system. […] In fact, quinpirole-promoted IP accumulation was substantially attenuated after irradiation for 10 or 20 sec. […] […]. […] […].
# HEK293T cells were transiently co-transfected with D2S and Gαqi. Solutions of the test compounds were irradiated at λ = 365 nm using the same LED as for the photochemistry experiments (see above) for 2, 5, 10 or 20 sec and the test compound was added to the cell system immediately after illumination. […]. Accumulation of IP was determined as described above. […]. Basal activity (buffer) was set as 0%. As a control, quinpirole was irradiated for 20 sec without observing any difference to the effect of the untreated analog. […]. All irradiation experiments were carried out in the dark or under dim light.
# [7] = biological target: T2, dopamine D2S receptor co-expressed with hybrid Gαqi in HEK293T cells; experiment: IP accumulation assay (IP-One HTRF), agonist / inverse agonist effect; assay type: cell-based
# [8] = biological target: T4, human adrenergic α2A receptor (Homo sapiens, UniProt P08913); experiment: Competition binding, [3H]RX821002, HEK293T membranes
# T4 construct: expressed in transfected cells; host or cells: HEK293T cells, transient transfection
# T4 sequence (P08913 1-465): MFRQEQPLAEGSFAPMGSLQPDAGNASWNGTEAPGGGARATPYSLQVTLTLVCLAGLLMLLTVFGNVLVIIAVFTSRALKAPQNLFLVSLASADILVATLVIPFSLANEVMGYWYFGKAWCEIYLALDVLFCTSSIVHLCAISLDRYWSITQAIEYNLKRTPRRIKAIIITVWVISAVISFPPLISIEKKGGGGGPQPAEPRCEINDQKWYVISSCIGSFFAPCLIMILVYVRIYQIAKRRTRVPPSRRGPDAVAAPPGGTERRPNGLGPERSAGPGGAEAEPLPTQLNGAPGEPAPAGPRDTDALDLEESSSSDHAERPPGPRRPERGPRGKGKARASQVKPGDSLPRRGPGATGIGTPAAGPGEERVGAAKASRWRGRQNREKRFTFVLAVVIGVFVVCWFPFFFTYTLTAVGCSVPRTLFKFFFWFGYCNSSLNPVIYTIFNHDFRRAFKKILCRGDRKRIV
# [9] = biological target: all dopamine receptor subtypes; experiment: Radioligand binding, text summary over all dopamine receptor subtypes tested; design: species or system human; details: range over D2L, D2S, D3, D4.4, stated in text; read-out: Ki values towards all dopamine receptor subtypes (range)
# [10] = biological target: T5, human adrenergic α1A receptor (Homo sapiens, UniProt P35348); experiment: Competition binding, [3H]prazosin, HEK293T membranes; details: ± SD of two experiments
# T5 construct: expressed in transfected cells; host or cells: HEK293T cells, transient transfection
# T5 sequence (P35348 1-466): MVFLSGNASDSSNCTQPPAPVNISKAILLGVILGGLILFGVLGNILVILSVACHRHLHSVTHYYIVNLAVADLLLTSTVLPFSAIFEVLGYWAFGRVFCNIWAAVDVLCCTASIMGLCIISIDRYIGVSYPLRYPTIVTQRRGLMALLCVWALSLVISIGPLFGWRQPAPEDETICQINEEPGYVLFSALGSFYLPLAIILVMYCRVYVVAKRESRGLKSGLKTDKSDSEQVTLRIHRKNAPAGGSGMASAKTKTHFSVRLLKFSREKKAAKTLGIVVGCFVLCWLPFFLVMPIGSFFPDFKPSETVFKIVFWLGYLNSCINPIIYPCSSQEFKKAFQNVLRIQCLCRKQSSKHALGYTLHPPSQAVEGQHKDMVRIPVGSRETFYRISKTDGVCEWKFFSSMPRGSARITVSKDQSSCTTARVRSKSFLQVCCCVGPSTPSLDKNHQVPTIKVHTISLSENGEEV
# [11] = biological target: T6, human dopamine D5 receptor (Homo sapiens, UniProt P21918); experiment: Competition binding, [3H]SCH23390, HEK293T membranes
# T6 construct: expressed in transfected cells; host or cells: HEK293T cells, transient transfection
# T6 sequence (P21918 whole entry): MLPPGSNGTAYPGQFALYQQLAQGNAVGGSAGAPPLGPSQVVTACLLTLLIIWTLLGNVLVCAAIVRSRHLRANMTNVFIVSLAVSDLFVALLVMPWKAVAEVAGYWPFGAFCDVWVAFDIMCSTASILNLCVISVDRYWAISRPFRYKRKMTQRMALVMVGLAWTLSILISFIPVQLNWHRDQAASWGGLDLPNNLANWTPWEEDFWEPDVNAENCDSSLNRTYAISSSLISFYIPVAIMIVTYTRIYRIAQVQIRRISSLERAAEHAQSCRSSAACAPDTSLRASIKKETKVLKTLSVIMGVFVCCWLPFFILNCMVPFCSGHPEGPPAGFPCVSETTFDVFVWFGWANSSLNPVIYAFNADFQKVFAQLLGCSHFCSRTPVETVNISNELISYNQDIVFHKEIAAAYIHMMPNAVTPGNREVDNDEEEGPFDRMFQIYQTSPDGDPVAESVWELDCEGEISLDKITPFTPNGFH
# [12] = biological target: T7, human adrenergic β2 receptor (Homo sapiens, UniProt P07550); experiment: Competition binding, [3H]CGP12177, HEK293T membranes; details: ± SD of two experiments
# T7 construct: expressed in transfected cells; host or cells: HEK293T cells, transient transfection
# T7 sequence (P07550 whole entry): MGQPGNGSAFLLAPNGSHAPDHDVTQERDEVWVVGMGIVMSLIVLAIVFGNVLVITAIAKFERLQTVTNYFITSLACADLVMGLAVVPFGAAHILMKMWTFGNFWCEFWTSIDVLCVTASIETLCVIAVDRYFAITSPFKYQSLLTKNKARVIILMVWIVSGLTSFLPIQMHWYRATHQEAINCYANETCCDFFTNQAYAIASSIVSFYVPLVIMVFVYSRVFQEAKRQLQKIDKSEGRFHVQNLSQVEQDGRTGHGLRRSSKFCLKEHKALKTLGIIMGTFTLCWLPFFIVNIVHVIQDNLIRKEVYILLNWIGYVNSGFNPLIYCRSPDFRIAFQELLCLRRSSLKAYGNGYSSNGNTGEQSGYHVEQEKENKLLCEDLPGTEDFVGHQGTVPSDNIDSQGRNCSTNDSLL
# [13] = biological target: T8, human dopamine D1 receptor (Homo sapiens, UniProt P21728); experiment: Competition binding, [3H]SCH23390, HEK293T membranes
# T8 construct: expressed in transfected cells; host or cells: HEK293T cells, transient transfection
# T8 sequence (P21728 whole entry): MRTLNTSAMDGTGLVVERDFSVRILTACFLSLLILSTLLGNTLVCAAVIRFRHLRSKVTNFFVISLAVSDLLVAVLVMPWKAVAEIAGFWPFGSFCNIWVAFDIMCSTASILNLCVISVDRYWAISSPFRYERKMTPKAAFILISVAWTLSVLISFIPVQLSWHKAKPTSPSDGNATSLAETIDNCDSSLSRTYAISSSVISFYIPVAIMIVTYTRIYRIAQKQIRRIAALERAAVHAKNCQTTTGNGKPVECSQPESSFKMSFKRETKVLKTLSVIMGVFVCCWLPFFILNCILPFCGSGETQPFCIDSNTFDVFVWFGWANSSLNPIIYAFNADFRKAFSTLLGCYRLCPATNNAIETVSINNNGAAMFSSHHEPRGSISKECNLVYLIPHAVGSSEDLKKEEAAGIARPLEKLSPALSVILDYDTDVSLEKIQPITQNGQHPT
# [14] = biological target: T9, human serotonin 5-HT1A receptor (Homo sapiens, UniProt P08908); experiment: Competition binding, [3H]WAY600135, HEK293T membranes; details: ± SD of two experiments
# T9 construct: expressed in transfected cells; host or cells: HEK293T cells, transient transfection
# T9 sequence (P08908 1-422): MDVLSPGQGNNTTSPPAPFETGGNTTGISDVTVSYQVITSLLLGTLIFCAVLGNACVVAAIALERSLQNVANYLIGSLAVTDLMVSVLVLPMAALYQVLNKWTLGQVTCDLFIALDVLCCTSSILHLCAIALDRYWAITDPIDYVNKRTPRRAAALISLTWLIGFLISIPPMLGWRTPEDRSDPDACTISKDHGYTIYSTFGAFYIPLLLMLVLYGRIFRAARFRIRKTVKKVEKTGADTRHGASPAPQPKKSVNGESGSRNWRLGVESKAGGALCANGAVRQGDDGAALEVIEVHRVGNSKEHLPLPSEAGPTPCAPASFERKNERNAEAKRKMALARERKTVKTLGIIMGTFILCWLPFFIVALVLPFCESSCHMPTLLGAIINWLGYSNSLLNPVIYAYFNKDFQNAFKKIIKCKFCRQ
# [15] = Compound stability and photolysis in aqueous buffer monitored by HPLC; assay type: physicochemical; details: for behaviour upon illumination with λp = 365 nm (in words): aqueous buffer, LED 365 nm, HPLC; for stability in the absence of light (in words): dark, storage and solution, HPLC/LCMS
# Description: All measurements were performed in aqueous buffer solution. Compound stability and photolysis was monitored by HPLC. […] Excitation of NB- and DMNB-type cages to trigger photolysis is usually performed with light of 300–400 nm. This absorption profile may limit the wavelength range for cage photolysis, as simultaneous excitation of the core pharmacophore may trigger photolytic degradation of the desired product. We performed photolysis experiments using a near UV light-emitting diode (LED) light source with a peak wavelength of λp = 365 nm and a spectrum half width of Δλ = 9 nm.
# No unspecific degradation of the pharmacophore was observed, resulting in constant concentration of the desired product. […] The exposure to ambient light for longer time led to partial photolytic degradation. After incubation in aqueous buffer at ambient light for 1 h, we detected remaining 51% and 62% of the initial concentrations of 4 (MG307) and 5, respectively.
# For compound characterization, UV/Vis absorption spectra of samples with c = 0.1 mM in methanol were measured on an Analytik Jena Specord 200 Plus spectrometer (λ = 210–400 nm). Irradiation experiments to trigger photolysis were performed in open HPLC glass vials using a LED (λ = 365 nm, 4.5 V, 0.7 A) to irradiate the samples from top. An aqueous buffer solution served as solvent (50 mM Tris, 1 mM EDTA, 50 mM MgCl2, 100 µg/ml bacitracin, 5 µg/ml soybean trypsin inhibitor), with initial sample concentrations of […] and sample volumes of 100 µl. Photolysis was monitored by HPLC as specified before (eluent system 1). […] Unless specified differently, all experiments were performed in triplicate.
# D2 and D3 receptors = experiment: Radioligand binding, summary over D2 and D3 subtypes; design: species or system human; details: range over D2L, D2S, D3, stated in text
# [16] = biological target: T10, human serotonin 5-HT2A receptor (Homo sapiens, UniProt P28223); experiment: Competition binding, [3H]ketanserin, HEK293T membranes; details: ± SD of two experiments
# T10 construct: expressed in transfected cells; host or cells: HEK293T cells, transient transfection
# T10 sequence (P28223 whole entry): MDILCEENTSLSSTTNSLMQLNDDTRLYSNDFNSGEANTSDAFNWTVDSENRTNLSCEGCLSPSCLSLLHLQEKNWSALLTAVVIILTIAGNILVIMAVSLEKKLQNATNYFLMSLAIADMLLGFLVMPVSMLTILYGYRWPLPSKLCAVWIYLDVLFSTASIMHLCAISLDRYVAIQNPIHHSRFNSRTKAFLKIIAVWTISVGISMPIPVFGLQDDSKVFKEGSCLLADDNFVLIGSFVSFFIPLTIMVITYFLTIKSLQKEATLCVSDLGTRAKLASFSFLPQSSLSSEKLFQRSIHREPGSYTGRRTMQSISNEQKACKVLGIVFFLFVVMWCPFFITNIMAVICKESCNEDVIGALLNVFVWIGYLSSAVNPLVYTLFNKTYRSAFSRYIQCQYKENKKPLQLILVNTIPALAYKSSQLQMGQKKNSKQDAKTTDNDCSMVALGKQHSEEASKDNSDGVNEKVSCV
# [17] = [3H]spiperone, mean ± SEM of 4-9 experiments, compounds 1, 2, 3: ± SD of two experiments, read-out: Ki value D2S
# [18] = [3H]spiperone, mean ± SEM of 4-9 experiments, compounds 1, 2, 3: ± SD of two experiments, read-out: Ki value D2L
# [19] = [3H]spiperone, mean ± SEM of 4-9 experiments, compounds 1, 2, 3: ± SD of two experiments, read-out: Ki value D4.4
# Sequence of human dopamine receptor subtype D2S (P14416 1-414 isoform P14416-2): as the sequence (P14416 1-414 isoform P14416-2) above
structure (smiles),measurement,setting,value
CCc1ccc(OC)c(C(=O)NC[C@@H]2CCCN2CC)c1OCc1ccccc1 [compound 6],Ki,[1]; [17],510 ± 120 nM
same,Ki,[2]; [18],1300 ± 250 nM
same,Ki,[3]; [19],7700 ± 1100 nM
same,Emax,"[4]; HEK-293T, in presence of 10 nM quinpirole, relative to quinpirole (100%) and buffer (0%), read-out: inhibitory effect Emax",-17 ± 9.8%
same,IC50,"[4]; blocking of the agonist effect of 10 nM quinpirole, ± SEM, 4-6 experiments, read-out: inhibitory effect IC50",5500 ± 2900 nM
same,Ki,[5],480 ± 120 nM
same,effect of irradiation at 365 nm for 20 sec on the compound's effect on IP accumulation (in words),[6],does not affect; also recorded: no significant effect
same,functional properties in IP accumulation assay (in words),[7]; D2S receptors,"inverse agonist properties were observed as well, but potency was low"
same,Emax,"[7]; HEK-293T, relative to full effect of quinpirole (100%) and buffer (0%)",-22 ± 1.8%
same,EC50,"[7]; IP accumulation, ± SEM, 3-8 experiments, negative Emax = inverse agonist effect",480 ± 310 nM
COC1(C2=NCCN2)COc2ccccc2O1 (centres unmarked) [[^3H]RX801002],Kd,"[8]; HEK293T membranes, read-out: KD of radioligand for α2A",0.29 nM
CCc1cc(Cl)c(OC)c(C(=O)NC[C@@H]2CCCN2CC)c1OCc1ccccc1 [compound 3],Ki,[1]; [17],6200 ± 3500 nM
same,Ki,[2]; [18],4800 ± 3500 nM
same,Ki,[9],4800 to 22000 nM
same,Ki,[5],5600 ± 5400 nM
CCc1cc(Cl)c(OC)c(C(=O)NC[C@@H]2CCCN2CC)c1O [eticlopride],Ki,[10],81 ± 2.1 nM
same,Ki,[11],46000 ± 1100 nM
same,Ki,[12],4900 ± 210 nM
same,Ki,[13],23000 ± 5800 nM
same,Ki,[1],0.28 ± 0.03 nM
same,Ki,[14],570 ± 250 nM
same,Ki,[2],0.25 ± 0.062 nM
same,Ki,[3],120 ± 19 nM
same,behaviour upon illumination with λp = 365 nm (in words),[15],fast decomposition rate towards light with λp = 365 nm
same,Ki,D2 and D3 receptors,0.21 to 0.28 nM
same,Ki,"[8]; [3H]RX821002, ± SD of two experiments",66 ± 19 nM
same,Ki,[16],220 ± 23 nM
CCc1cc(Cl)c(OC)c(C(=O)NC[C@@H]2CCCN2CC)c1OCc1ccccc1[N+](=O)[O-] [compound 1],Ki,[3]; [19],2800 ± 1200 nM
same,behaviour upon illumination with λp = 365 nm (in words),[15],complete photolysis after seconds of irradiation
same,stability in the absence of light (in words),[15],not fully stable and slowly decomposed to liberate eticlopride even in the absence of light
CCc1cc(Cl)c(OC)c(C(=O)NC[C@@H]2CCCN2CC)c1OCc1cc(OC)c(OC)cc1[N+](=O)[O-] [compound 2],behaviour upon illumination with λp = 365 nm (in words),[15],Rapid photolytic degradation
same,stability in the absence of light (in words),[15],not fully stable and slowly decomposed to liberate eticlopride even in the absence of light
